Holding throughout (test): NCI tumour cell line growth inhibition, 48 h
For test [1], the system named is MOLT-4.
The subject of test [2] is SF-295.
Test [3] deals with A549.
The test system of test [4] is A498.
The subject of test [5] is ACHN.
Test [6] concerns HOP-92.
In test [7] the test system is M14.
Test [8] deals with NCI-H23.
In test [9] the test system is SN12C.
Test [10] has as its system CCRF-CEM.
Test [11] has as its system HT-29.
The test system of test [12] is LOX IMVI.
For test [13], the system named is Malme-3M.
In test [14] the test system is HCT-15.
Test [15] relates to HCC 2998.
The subject of test [16] is SR.
Test [17] deals with 786-0.
The subject of test [18] is OVCAR-8.
In test [19] the test system is NCI-H522.
The subject of test [20] is COLO 205.

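Following 48 hours of exposure in 96-well plates, responses at five concentrations were used to interpolate endpoints linearly. GI50: concentration for 50% inhibition of growth.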 Calls of active or inactive are those of the source. Rule as the data show it: active = GI50 up to about 1.1 µM and inactive = higher. A value given as a limit tells only on which side of the number the result lay.

As to `CCOC(=O)N1CCc2cc(OC)c(OC)cc2/C1=C\c1ccc(OC)c(OC)c1`, the GI50 in [1] is 27.7 µM (inactive); in [2], 22.9 µM (inactive); in [3], 26.8 µM (inactive); in test [4], 23.2 µM (inactive); in test [5], 26.3 µM (inactive); in [6], 15.8 µM (inactive). In addition, the GI50 was > 10 µM (inactive) in test [7]; 39 µM (inactive) in test [8]; 26.4 µM (inactive) in [9]; 20.7 µM (inactive) in test [10]; 19 µM (inactive) in test [11]; 18.8 µM (inactive) in test [12]. Moreover, the GI50 in [13] was 20.2 µM (inactive); in test [14], 31 µM; in test [15] it was 33.3 µM (inactive); in test [16] it was 29.1 µM (inactive); in test [17] it was 19.9 µM (inactive); in test [18], 30.1 µM (inactive). Also, the values for the GI50 in [19] and in test [20] were 25 µM (inactive) and 21.6 µM (inactive), respectively.

As for `C/C(CC(=O)Nc1ccc(C)c(C)c1)=N\N(c1ccccc1)c1ccccc1`, the GI50 is 62.5 µM (inactive) in [1]; > 100 µM (inactive) in test [2]; > 100 µM (inactive) in test [3]; > 100 µM (inactive) in [4]; 58.9 µM (inactive) in [5]; > 100 µM (inactive) in [6]. The GI50 in [7] was > 100 µM (inactive); in [8], > 100 µM (inactive); in [9], 42.9 µM (inactive); in test [10], 26.4 µM (inactive); in [11], > 100 µM (inactive); in test [12], 36.1 µM (inactive). The GI50 in test [13] is > 100 µM (inactive); in [14], 49 µM; in test [15], > 100 µM (inactive); in test [16] it was 22.4 µM (inactive); in test [17] it was 99.1 µM (inactive); in test [18], > 100 µM (inactive). The GI50 is 15.2 µM (inactive) in test [19] and 18.3 µM (inactive) in test [20].

On to `CCOC(=O)NN1C(=O)C(=P(c2ccccc2)(c2ccccc2)c2ccccc2)C(C(=O)OC)=C1C`, for which the GI50 in test [1], in [2], in test [3], in test [4], in test [5] and in [6] was > 100 µM (inactive) in each case. Moreover, the GI50 in [7], in [8], in test [9], in [10], in test [11] and in [12] was > 100 µM (inactive) each time. For the same compound, the GI50 was > 100 µM (inactive) in [13]; more than 100 µM in test [14]; > 100 µM (inactive) in [15]; > 100 µM (inactive) in test [16]; > 100 µM (inactive) in test [17]; > 100 µM (inactive) in [18]. Further, the GI50 in [19] and in test [20] was > 100 µM (inactive) throughout.

In the case of `O=C1OC2(C(F)(F)F)Oc3ccccc3CN2C12CCCCC2` (stereo not given), the GI50 in [1] was 18.1 µM (inactive); in [2], 21.1 µM (inactive); in test [3], 28.6 µM (inactive); in [4], 53.8 µM (inactive); in test [5] it was 19.7 µM (inactive); in test [6], 24.9 µM (inactive). Also, the GI50 in test [7] was 19.5 µM (inactive); in test [8] it was 25.4 µM (inactive); in test [9] it was 24.7 µM (inactive); in test [10] it was 25.1 µM (inactive); in [11] it was 23.7 µM (inactive); in test [12] it was 22.4 µM (inactive). The GI50 in test [13] is 18 µM (inactive); in test [14] it was 28.2 µM; in [15], 33.1 µM (inactive); in [16], 22.8 µM (inactive); in test [17], 35.3 µM (inactive); in test [18], 36.3 µM (inactive). For the same compound, the GI50 is 24.3 µM (inactive) in test [19] and 18.7 µM (inactive) in [20].

As to `O=c1c2c(F)c(F)c(F)c(F)c2sc2nccn12`, the GI50 in [1] was 3.01 µM (inactive); in test [2], 17.9 µM (inactive); in test [3] it was 19.5 µM (inactive); in test [4], 19.2 µM (inactive); in [5], 16.4 µM (inactive); in [6] it was 19.9 µM (inactive). In addition, the GI50 in test [7] is 17.6 µM (inactive); in [8], 15.5 µM (inactive); in [9], 18.5 µM (inactive); in test [10], 11.3 µM (inactive); in [11], 16.9 µM (inactive); in [12], 12.3 µM (inactive). Further, the GI50 was 17.3 µM (inactive) in test [13]; 12.4 µM in [14]; 17.5 µM (inactive) in test [15]; 3.27 µM (inactive) in test [16]; 15.2 µM (inactive) in test [17]; 19.2 µM (inactive) in [18]. Further, the GI50 was 18.9 µM (inactive) in [19] and 17.6 µM (inactive) in [20].

In the case of `O=c1c2cc(Br)ccc2nc(CNc2ccccc2)n1-c1ccccc1`, the GI50 in test [1] is 9.59 µM (inactive); in test [2], 24.2 µM (inactive); in [3], 21.7 µM (inactive); in test [4] it was 34.6 µM (inactive); in [5], 18.7 µM (inactive); in [6], 19.1 µM (inactive). Moreover, the GI50 was 20.7 µM (inactive) in test [7]; 13.6 µM (inactive) in test [8]; 14.1 µM (inactive) in test [9]; 3.09 µM (inactive) in test [10]; 16.7 µM (inactive) in test [11]; 7.5 µM (inactive) in [12]. The GI50 in test [13] was 14.8 µM (inactive); in test [14], 16.7 µM; in test [15], 19.5 µM (inactive); in test [16], 6.52 µM (inactive); in test [17], 14.6 µM (inactive); in test [18], 23.3 µM (inactive). In addition, the GI50 in test [19] was 6.84 µM (inactive); in test [20], 17.4 µM (inactive).

Take `CCCCN(CCCC)C(=O)C(=O)CC(=O)/C=C/c1ccccc1`: the GI50 in test [1], in [2], in [3], in test [4], in test [5] and in test [6] was > 100 µM (inactive) in each case. For the same compound, the GI50 in test [7], in [8], in test [9], in test [10], in test [11] and in [12] was > 100 µM (inactive) in each case. In addition, the GI50 in test [13] is > 100 µM (inactive); in [14], more than 100 µM; in [15], > 100 µM (inactive); in [16], > 100 µM (inactive); in test [17], > 100 µM (inactive); in test [18], > 100 µM (inactive). For the same compound, the GI50 in [19] and in test [20] was > 100 µM (inactive) each time.

As to `C#C[C@]1(O)CC[C@H]2[C@@H]3CCC4=C/C(=N\OCCN5CCCCC5)CC[C@]4(C)[C@H]3CC[C@@]21C`, the GI50 is 3.9 µM (inactive) in [1]; 3.56 µM (inactive) in [2]; 7.08 µM (inactive) in [3]; 6.15 µM (inactive) in test [4]; 8.3 µM (inactive) in test [5]; 15 µM (inactive) in test [6]. In addition, the GI50 in test [7] was 3.27 µM (inactive); in [8], 3.83 µM (inactive); in test [9], 6.89 µM (inactive); in test [10] it was 4.54 µM (inactive); in [11] it was 6.67 µM (inactive); in [12], 3.58 µM (inactive). Further, the GI50 was 8.79 µM (inactive) in [13]; 7.31 µM in [14]; 12.8 µM (inactive) in test [15]; 1.48 µM (inactive) in [16]; 3.63 µM (inactive) in test [17]; 8.02 µM (inactive) in [18]. For the same compound, the GI50 in test [19] is 2.47 µM (inactive); in test [20], 2.12 µM (inactive).

As to `CCOc1ccc(NC(=O)/C(=C\c2ccc(C)cc2)C(C)=O)cc1`, the GI50 in test [1], in test [2], in [3], in test [4], in test [5] and in test [6] was > 100 µM (inactive) in each case. For the same compound, the GI50 in test [7], in [8], in [9], in [10], in test [11] and in test [12] was > 100 µM (inactive) in each case. Besides, the GI50 in test [13] is > 100 µM (inactive); in test [14], more than 100 µM; in [15] it was > 100 µM (inactive); in [16], < 0.01 µM (active); in test [17], > 100 µM (inactive); in test [18], > 100 µM (inactive). In addition, the GI50 in [19] and in [20] was > 100 µM (inactive) throughout.

With `Cn1c(O)c(C2=Nc3ccccc3C2=O)c2ccccc21`, the GI50 in test [1], in test [2], in [3], in test [4], in test [5] and in test [6] was > 100 µM (inactive) in each case. Besides, the GI50 in test [7], in [8], in [9], in test [10], in test [11] and in [12] was > 100 µM (inactive) throughout. Also, the GI50 in [13] was > 100 µM (inactive); in [14], more than 100 µM; in [15], > 100 µM (inactive); in test [16], > 100 µM (inactive); in test [17], > 100 µM (inactive); in [18] it was > 100 µM (inactive). Besides, the GI50 in [19] and in [20] was > 100 µM (inactive) throughout.

The record behind these values is ChEMBL document CHEMBL1201862, “PubChem BioAssay data set” (2004).
